Laboratory results from patent US8691761B2, “Somatostatin receptor 2 antagonists” (priority 2006, dated 2014).
Several values for one entry are separate records, joined by “and”; a condition that tells them apart may be missing. Equal entries are not always repeated. Where two headings read alike, the source gives them in different places. Bridge positions count the residues as written; N and C are the ends. Square brackets hold non-standard residues; d marks the D form. Peptide text beside a SMILES is read from it. * marks the point of attachment. DOTA = O=C(O)CN1CCN(CC(=O)O)CCN(CC(=O)*)CCN(CC(=O)O)CC1; dPhe(4-NHCONH2) = NC(=O)Nc1ccc(C[C@@H](N)C(=O)O)cc1; Phe(4-Cl) = N[C@@H](Cc1ccc(Cl)cc1)C(=O)O; 2Nal = N[C@@H](Cc1ccc2ccccc2c1)C(=O)O

Tests used:
human sst2A receptor = molecular target: T1, human sst2A receptor (Homo sapiens, UniProt P30874); assay: Immunofluorescence-based sst2 internalization assay in HEK-sst2 cells; type: cell-based; settings: n ≧ 2
T1 construct: expressed in transfected cells; host or cells: HEK293 (HEK-sst2)
Description: Immunofluorescence-based sst2 Internalization Assay. Immunofluorescence microscopy-based internalization assay for sst2 was performed with HEK-sst2 using the sst2-specific antibody R2-88 as described elsewhere herein. HEK-sst2 cells were treated either with vehicle alone, the sst2 agonist [Tyr^3]-octreotide at a concentration of 100 nM, [Tyr^3]-octreotide at a concentration of 100 nM in the presence of an excess of the SRIF analogues to be tested (100 times the concentration of [Tyr^3]-octreotide), or with the SRIF analogues to be tested alone at a concentration of 10 μM, and then processed for immunofluorescence microscopy as described previously.

hSSTR4 = molecular target: T2, hSSTR4 (Homo sapiens, UniProt P31391); assay: Receptor autoradiography, displacement of 125I-[Leu8,D-Trp22,Tyr25]-SRIF-28 from membrane pellet sections; type: binding
T2 construct: expressed in transfected cells; host or cells: CHO-K1 or CCL39 cells
Description: (§1) Generally, recombinant cells expressing the receptor are washed and homogenized to prepare a crude protein homogenate in a suitable buffer. In a typical assay, an amount of protein from the cell homogenate is placed into a small volume of an appropriate assay buffer at an appropriate pH. Candidate substances, such as potential SRIF agonists and antagonists, are added to the admixture in convenient concentrations, and the interaction between the candidate substance and the receptor polypeptide is monitored.
(§2) In vitro Bioassay: The effects of the various somatostatin analogs were tested in vitro for their ability to bind to isolated cloned receptors expressed on CHO-K1 cells and CCL39 cells. The molecular cloning of the genes encoding multiple somatostatin receptor subtypes permitted the individual expression of these receptors in mammalian cells and the characterization of their respective pharmacological profiles.
(§3) CHO-K1 cells were grown in Ham's F-12 medium, and CCL39 cells were grown in Dulbecco's modified Eagle's medium/Ham's F-12(1:1) mix, supplemented with 10% fetal bovine serum, 100 U/ml penicillin and 100 μg/ml streptomycin, in humidified air containing 5% CO2 at 37° C. Cells were washed twice with and scraped into ice-cold 0.05 M Tris-HCl (pH 7.4), collected by centrifugation, and homogenized using a rotor/stator/system in the same buffer. After centrifugation at 120 g for 5 min at 4° C., the supernatant was collected and centrifuged again at 48,000 g for 30 min at 4° C. The resulting pellet was resuspended in ice-cold Tris buffer, transferred into a microfuge tube, and centrifuged at 20,000 g for 15 min at 4° C. After withdrawal of the supernatant, the membrane pellet was stored at −80° C.
(§4) Receptor autoradiography was performed on 20 μm thick cryostat sections of the membrane pellets, mounted on microscope slides, and then stored at −20° C. […] Increasing concentrations of the unlabeled peptide were used ranging from 0.1-1000 nM. […] IC50 values were calculated after quantification of the data using a computer-assisted image processing system as known in this art.
(§5) The numbers in parentheses indicate the number of times the particular binding test was carried out.
(§6) Receptor autoradiography. Cell membrane pellets were prepared as previously described, and stored at −80° C. Receptor autoradiography was performed on 20-μm thick cryostat (Microm HM 500, Walldorf, Germany) sections of the membrane pellets, mounted on microscope slides, and then stored at −20° C. […] After a brief dip in distilled water to remove excess salts, the sections were dried quickly and exposed for 1 week to Kodak BioMax MR film. IC50 values were calculated after quantification of the data using a computer-assisted image processing system as described previously. […] (Reubi, J. C. “In vitro identification of vasoactive intestinal peptide receptors in human tumors: Implications for tumor imaging.” J. Nucl. Med. 1995, 36, 1846-1853).
(§7) To investigate their ssts binding properties, the peptides were tested for their ability to bind to cryostat sections from membrane pellets of cells expressing the five human ssts (Table 3).

hSSTR2 = molecular target: T3, hSSTR2 (Homo sapiens, UniProt P30874); assay: as above; type: binding
T3 construct: expressed in transfected cells; host or cells: CHO-K1 or CCL39 cells
Description: as §1, §2, §3, §4, §5, §6, §7

hSSTR5 = molecular target: T4, hSSTR5 (Homo sapiens, UniProt P35346); assay: as above; type: binding
T4 construct: expressed in transfected cells; host or cells: CHO-K1 or CCL39 cells
Description: as §1, §2, §3, §4, §5, §6, §7

hSSTR1 = molecular target: T5, hSSTR1 (Homo sapiens, UniProt P30872); assay: as above; type: binding
T5 construct: expressed in transfected cells; host or cells: CHO-K1 or CCL39 cells
Description: as §1, §2, §3, §4, §5, §6, §7

hSSTR3 = molecular target: T6, hSSTR3 (Homo sapiens, UniProt P32745); assay: as above; type: binding
T6 construct: expressed in transfected cells; host or cells: CHO-K1 or CCL39 cells
Description: as §1, §2, §3, §4, §5, §6, §7

sst2 = sst2 (Homo sapiens, UniProt P30874); assay: Calcium release assay in HEK-sst2 cells (Fluo-4NW); type: cell-based; design: expressed in transfected cells; host or cells: HEK293 (HEK-sst2); settings: n ≧ 2
Description: Calcium release assay. Intracellular calcium release was measured in HEK-sst2 using the Fluo-4NW Calcium Assay kit as described previously (Magrys, et al. “The role of anti-alpha-enolase autoantibodies in pathogenicity of autoimmune-mediated retinopathy.” J. Clin. Immunol. 2007, 27, 181-192; Michel et al. “The Nef protein of human immunodeficiency virus is a broad-spectrum modulator of chemokine receptor cell surface levels that acts independently of classical motifs for receptor endocytosis and Galphai signaling.” Mol. Biol. Cell. 2006, 17, 3578-3590). In brief, HEK-sst2 cells were seeded (25,000 cells per well) in poly-D-lysine (20 μg/mL) coated 96 well plates and cultured for 1 day at 37° C. and 5% CO2 in culture medium. At the day of the experiment, the cells were washed with assay buffer (1×HBSS, 20 mM HEPES) containing 2.5 mM probenecid, and then loaded with 100 μL/well Fluo-4NW dye in assay buffer containing 2.5 mM probenecid for 30 min at 37° C. and 5% CO2 and then for further 30 min at room temperature. To measure the intracellular calcium mobilization after stimulation with the SRIF analogues to be tested, the dye-loaded cells were transferred to a SpectraMax M2^e (Molecular Devices, Sunnyvale, Calif.). Intracellular calcium mobilization was recorded in a kinetic for 60 sec at room temperature monitoring fluorescence emission at 520 nm (with λex=485 nm) in the presence of the analogues at the concentrations indicated. Maximum fluorescence (Fmax) was measured after the addition of 25 μM ionomycin. Baseline (control) measurements were taken for dye-loaded, untreated cells. Data are shown as percentage of Fmax (% Fmax) as reported previously. (Magrys, et al. J. Clin. Immunol. 2007, 27, 181-192; Michel et al. Mol. Biol. Cell. 2006, 17, 3578-3590). All experiments were repeated at least three times in triplicate.

in vivo = settings: female, athymic nude, mouse, iv, total radioactivity, biodistribution
Description: (§8) The following protocol was used to determine biodistribution
(§9) Confirmation that the transfected tumors were indeed expressing solely sst2 was obtained in resected tumor samples tested in vitro with somatostatin receptor autoradiography using subtype selective ligands.
(§10) The biodistribution of was studied at 4 h or 24 h after injection. The organs of interest were collected, blotted dry, weighed, their radioactivity measured and the percentage of injected activity per gram (% IA/g) calculated.

HEK-sst2 tumors = settings: female, athymic nude, mouse, in vivo, iv, 4 h
Description: as §8, §9, §10

[1] = Table 3, mean ± SEM when N ≧ 3, read-out: sst4 binding affinity (IC50)
[2] = Table 1, inhibition of radioligand binding to cloned human receptor, read-out: IC50 hSSTR2
[3] = Table 3, mean ± SEM when N ≧ 3, read-out: sst2 binding affinity (IC50)
[4] = Table 3, mean ± SEM when N ≧ 3, read-out: sst5 binding affinity (IC50)
[5] = Table 3, mean ± SEM when N ≧ 3, read-out: sst1 binding affinity (IC50)
[6] = Table 3, mean ± SEM when N ≧ 3, read-out: sst3 binding affinity (IC50)

T5 sequence (P30872 whole entry): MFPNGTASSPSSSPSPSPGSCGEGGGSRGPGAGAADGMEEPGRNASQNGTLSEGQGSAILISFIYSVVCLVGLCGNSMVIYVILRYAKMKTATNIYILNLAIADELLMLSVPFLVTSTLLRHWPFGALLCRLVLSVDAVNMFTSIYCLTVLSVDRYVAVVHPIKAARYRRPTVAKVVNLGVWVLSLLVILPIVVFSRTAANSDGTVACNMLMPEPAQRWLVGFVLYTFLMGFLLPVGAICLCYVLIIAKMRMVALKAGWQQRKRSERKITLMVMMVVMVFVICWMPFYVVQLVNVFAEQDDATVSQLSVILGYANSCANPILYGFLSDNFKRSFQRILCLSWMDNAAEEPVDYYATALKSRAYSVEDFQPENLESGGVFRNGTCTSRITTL
T6 sequence (P32745 whole entry): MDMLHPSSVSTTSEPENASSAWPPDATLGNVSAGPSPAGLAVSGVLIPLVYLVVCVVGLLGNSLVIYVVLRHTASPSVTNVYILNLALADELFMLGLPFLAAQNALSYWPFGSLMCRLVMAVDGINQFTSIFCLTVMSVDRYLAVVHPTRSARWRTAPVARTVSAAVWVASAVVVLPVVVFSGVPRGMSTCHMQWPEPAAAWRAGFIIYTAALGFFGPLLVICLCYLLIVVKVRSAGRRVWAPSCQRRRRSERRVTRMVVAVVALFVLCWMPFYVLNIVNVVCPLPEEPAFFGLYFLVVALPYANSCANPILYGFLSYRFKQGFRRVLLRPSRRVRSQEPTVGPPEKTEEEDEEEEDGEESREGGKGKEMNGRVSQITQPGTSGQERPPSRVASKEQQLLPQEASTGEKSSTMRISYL
T1 sequence (P30874 whole entry): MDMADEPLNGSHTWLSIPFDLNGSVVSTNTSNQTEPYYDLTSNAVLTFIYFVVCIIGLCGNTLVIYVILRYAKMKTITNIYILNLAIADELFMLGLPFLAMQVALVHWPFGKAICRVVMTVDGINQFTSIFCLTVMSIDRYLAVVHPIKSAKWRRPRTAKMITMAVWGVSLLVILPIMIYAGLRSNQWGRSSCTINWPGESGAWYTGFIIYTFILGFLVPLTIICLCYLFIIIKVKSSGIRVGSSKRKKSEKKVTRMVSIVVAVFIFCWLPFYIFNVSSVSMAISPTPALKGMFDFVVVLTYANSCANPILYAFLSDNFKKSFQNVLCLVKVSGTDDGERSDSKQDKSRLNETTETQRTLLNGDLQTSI
sst2, sequence (P30874 whole entry): as above
T3 sequence (P30874 whole entry): as above
T4 sequence (P35346 whole entry): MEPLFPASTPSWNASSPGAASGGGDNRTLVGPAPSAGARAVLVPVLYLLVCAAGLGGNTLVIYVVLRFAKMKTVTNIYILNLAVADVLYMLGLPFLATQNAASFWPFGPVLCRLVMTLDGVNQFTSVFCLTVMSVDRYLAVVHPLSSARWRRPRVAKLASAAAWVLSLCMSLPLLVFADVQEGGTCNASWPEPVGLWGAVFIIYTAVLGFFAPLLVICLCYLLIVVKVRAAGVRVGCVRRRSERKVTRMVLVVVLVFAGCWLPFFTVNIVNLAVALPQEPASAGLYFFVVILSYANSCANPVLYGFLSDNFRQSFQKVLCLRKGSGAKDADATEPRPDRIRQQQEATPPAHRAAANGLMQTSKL
T2 sequence (P31391 whole entry): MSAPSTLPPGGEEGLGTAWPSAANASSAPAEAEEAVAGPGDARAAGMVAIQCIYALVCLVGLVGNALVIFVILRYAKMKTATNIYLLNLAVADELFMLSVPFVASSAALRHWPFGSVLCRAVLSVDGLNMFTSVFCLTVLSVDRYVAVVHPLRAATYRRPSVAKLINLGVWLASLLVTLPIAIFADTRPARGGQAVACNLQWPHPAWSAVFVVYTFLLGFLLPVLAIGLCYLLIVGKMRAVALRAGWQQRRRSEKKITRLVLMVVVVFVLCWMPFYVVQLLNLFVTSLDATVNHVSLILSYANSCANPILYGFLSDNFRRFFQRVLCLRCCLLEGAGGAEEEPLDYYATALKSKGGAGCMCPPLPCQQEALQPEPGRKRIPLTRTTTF

## C[C@@H](O)[C@@H]1NC(=O)[C@H](CCCCN)NC(=O)[C@@H](Cc2c[nH]c3ccccc23)NC(=O)[C@H](Cc2ccc(NC(N)=O)cc2)NC(=O)[C@H](NC(=O)[C@H](Cc2ccc(Cl)cc2)NC(=O)CN2CCN(CC(=O)O)CCN(CC(=O)O)CCN(CC(=O)O)CC2)CSSC[C@@H](C(=O)N[C@@H](Cc2ccc3ccccc3c2)C(N)=O)NC1=O [Peptide No. 14, DOTA-Cpa-c[DCys-Aph(Cbm)-DTrp-Lys-Thr-Cys]-2Nal-NH2]
Human sst2A receptor
  sst2-internalization tested in vitro in HEK-sst2 cells (function): Antagonist
hSSTR4; Table 1, inhibition of radioligand binding to cloned human receptor, read-out: IC50 hSSTR4
  IC50: 816 ± 114 nM
hSSTR4; [1]
  IC50: 831 ± 82 nM
hSSTR2; [2]
  IC50: 9.4 ± 1.6 nM
hSSTR2; [3]
  IC50: 9.8 ± 1.2 nM
hSSTR5; Table 1, inhibition of radioligand binding to cloned human receptor, read-out: IC50 hSSTR5
  IC50: > 1000 nM
hSSTR5; [4]
  IC50: > 1000 nM
hSSTR1; Table 1, inhibition of radioligand binding to cloned human receptor, read-out: IC50 hSSTR1
  IC50: > 1000 nM
hSSTR1; [5]
  IC50: > 1000 nM
hSSTR3; Table 1, inhibition of radioligand binding to cloned human receptor, read-out: IC50 hSSTR3
  IC50: > 1000 nM
hSSTR3; [6]
  IC50: 972 ± 212 nM
sst2
  Calcium release tested in vitro in HEK-sst2 cells (function): Antagonist

## C[C@@H](O)[C@@H]1NC(=O)[C@H](CCCCN)NC(=O)[C@@H](Cc2c[nH]c3ccccc23)NC(=O)[C@H](Cc2ccc(NC(N)=O)cc2)NC(=O)[C@H](NC(=O)[C@H](Cc2ccc(Cl)cc2)NC(=O)CCNC(=O)CN2CCN(CC(=O)O)CCN(CC(=O)O)CCN(CC(=O)O)CC2)CSSC[C@@H](C(=O)N[C@@H](Cc2ccc3ccccc3c2)C(N)=O)NC1=O [compound 15, DOTA-βAla-Cpa-c[DCys-Aph(Cbm)-DTrp-Lys-Thr-Cys]-2Nal-NH2]
Human sst2A receptor
  sst2-internalization tested in vitro in HEK-sst2 cells (function): Antagonist
hSSTR4; [1]
  IC50: > 1000 nM
hSSTR2; [3]
  IC50: 46 ± 13 nM
hSSTR5; [4]
  IC50: > 1000 nM
hSSTR1; [5]
  IC50: > 1000 nM
hSSTR3; [6]
  IC50: 124 ± 53 nM
sst2
  Calcium release tested in vitro in HEK-sst2 cells (function): Antagonist

## C[C@@H](O)[C@@H]1NC(=O)[C@H](CCCCN)NC(=O)[C@@H](Cc2ccc(NC(N)=O)cc2)NC(=O)[C@H](Cc2ccc(O)cc2)NC(=O)[C@H](NC(=O)[C@H](Cc2ccc(Cl)cc2)NC(=O)CN2CCN(CC(=O)O)CCN(CC(=O)O)CCN(CC(=O)O)CC2)CSSC[C@@H](C(=O)N[C@@H](Cc2ccc3ccccc3c2)C(N)=O)NC1=O [^111In-labelled Peptide No. 28, metal not drawn] ({DOTA}-[Phe(4-Cl)][dC]Y[dPhe(4-NHCONH2)]KTC[2Nal]-NH2; disulfide 2-7)
In vivo; adrenal
  tissue uptake at 4 h: 0.21 %ID/g
In vivo; blood
  tissue uptake at 4 h: 0.19 %ID/g
In vivo; bone
  tissue uptake at 4 h: 0.16 %ID/g
In vivo; heart
  tissue uptake at 4 h: 0.12 %ID/g
In vivo; liver
  tissue uptake at 4 h: 0.88 %ID/g
In vivo; muscle
  tissue uptake at 4 h: 0.06 %ID/g
In vivo; pancreas
  tissue uptake at 4 h: 2.41 %ID/g
In vivo; pituitary
  tissue uptake at 4 h: 0.21 %ID/g
In vivo; sst2 tumor
  tissue uptake at 4 h: 2.36 %ID/g
HEK-sst2 tumors
  biodistribution, kidney: 6.95 % IA/g
  biodistribution, spleen: 0.36 % IA/g

## C[C@@H](O)[C@@H]1NC(=O)[C@H](CCCCN)NC(=O)[C@@H](Cc2ccc(NC(N)=O)cc2)NC(=O)[C@H](Cc2ccc(O)cc2)NC(=O)[C@H](NC(=O)[C@H](Cc2ccc(Cl)cc2)NC(=O)CN2CCN(CC(=O)O)CCN(CC(=O)O)CCN(CC(=O)O)CC2)CSSC[C@@H](C(=O)N[C@@H](Cc2ccc3ccccc3c2)C(N)=O)NC1=O [Peptide No. 28, DOTA-Cpa-c[DCys-Tyr-DAph(Cbm)-Lys-Thr-Cys]-2Nal-NH2] ({DOTA}-[Phe(4-Cl)][dC]Y[dPhe(4-NHCONH2)]KTC[2Nal]-NH2; disulfide 2-7)
Human sst2A receptor
  sst2-internalization tested in vitro in HEK-sst2 cells (function): Antagonist
hSSTR4; 100 nM
  effect on binding of the SRIF-28 radioligand to SSTR4: minimal effects
hSSTR2; [2]
  IC50: ~1.8 nM and 1.8 nM
hSSTR5; 100 nM
  effect on binding of the SRIF-28 radioligand to SSTR5: minimal effects
hSSTR1; 100 nM
  effect on binding of the SRIF-28 radioligand to SSTR1: minimal effects
hSSTR3; 100 nM
  effect on binding of the SRIF-28 radioligand to SSTR3: minimal effects
sst2
  Calcium release tested in vitro in HEK-sst2 cells (function): Antagonist

## C[C@@H](O)[C@@H]1NC(=O)[C@H](CCCCN)NC(=O)[C@@H](Cc2c[nH]c3ccccc23)NC(=O)[C@H](Cc2ccc(O)cc2)NC(=O)[C@H](NC(=O)[C@H](Cc2ccc([N+](=O)[O-])cc2)NC(=O)CN2CCN(CC(=O)O)CCN(CC(=O)O)CCN(CC(=O)O)CC2)CSSC[C@@H](C(=O)N[C@H](Cc2ccc(O)cc2)C(N)=O)NC1=O [compound 2, DOTA-pNO2Phe-c[DCys-Tyr-DTrp-Lys-Thr-Cys]-DTyr-NH2]
Human sst2A receptor
  sst2-internalization tested in vitro in HEK-sst2 cells (function): Antagonist
hSSTR4; [1]
  IC50: 287 ± 27 nM
hSSTR2; [3]
  IC50: 1.5 nM
hSSTR5; [4]
  IC50: > 1000 nM
hSSTR1; [5]
  IC50: > 1000 nM
hSSTR3; [6]
  IC50: > 1000 nM
sst2
  Calcium release tested in vitro in HEK-sst2 cells (function): Antagonist
